# Source: US20170315129A1, “CANCER CELL DETECTION METHOD USING LIVING BODY-DERIVED CELLS OF BIOLOGICAL ORIGIN” (Hirosaki University, priority 2014, published 2017)
# Entries after “also recorded” stand apart in the source; their conditions may differ.
# Assays:
# [1] = tested on: ascites cells obtained during an operation of a patient with ovarian cancer (serous adenocarcinoma); assay: Live-cell fluorescence imaging by the perfusion method, original ascites cells, ovarian cancer patient (Example 4); format: cell-based, human; details: cancer cell cluster; perfusion 100 μM 2-NBDLG and 20 μM 2-TRLG for 5 minutes, imaged 10 minutes after switch to KRB; FIG. 7A/7B, 8D
# Procedure: A surplus portion of the original ascitic fluid taken from the peritoneal cavity immediately after the start of laparotomy for ovarian cancer (serous adenocarcinoma) was added to a 50 mL centrifuge tube having 5 mL of the Hanks solution in advance. The obtained ascitic fluid suspension was checked for presence of fibrin with a toothpick, and then passed through a mesh to remove fat and impurities. Next, it was evenly dispensed into two 50 mL centrifuge tubes, and centrifuged at 1500 G for 2 minutes at room temperature. The supernatant of each of the two centrifuge tubes was then gently removed from the liquid surface down to 7.5 mL with an electric pipette, and then the rest was further removed with a dropper to leave 1 mL. The sedimented layer containing red blood cells and the like were present at the bottom of the centrifuge tube. A 1 mL portion was collected from the upper surface with a dropper without aspirating red blood cells from the sedimented layer to obtain an ascites cell suspension. • (2) Adhesion of Ascites Cells on Glass Plate by Centrifugation, and Method of Maintaining Cell Viability
# The ascites cells were allowed to attach on a glass plate using a commercially available automated cell collecting system CF-12D (Sakura Finetek Japan Co., Ltd.). […]
# [2] = tested on: cells in peritoneal washing obtained during an operation of a patient with endometrial cancer (endometrial endometrioid adenocarcinoma); assay: Live-cell fluorescence imaging by perfusion, cells in peritoneal washing, endometrial cancer patient (Example 5); format: cell-based, human; details: cell clusters a and b (apparent mesothelial cells and apparent macrophage cells); perfusion 100 μM 2-NBDLG and 20 μM 2TRLG; FIG. 11A/11B, 12D
# Procedure: A peritoneal washing obtained immediately after the start of laparotomy for endometrial cancer (endometrial endometrioid adenocarcinoma) in the same manner as in Example 1 was added to a 50 mL centrifuge tube having 5 mL of the Hanks solution in advance. Fibrin, fat, and impurities were removed from the ascitic fluid suspension in the same manner as in Example 4. Subsequently, a half of it was dispensed into a 50 mL centrifuge tube, and centrifuged at 1500 G for 2 minutes at room temperature. The supernatant was processed in the same manner as in Example 4 to obtain 1 mL of an ascites-cell suspension. • (2) Adhesion of Ascites Cells on Glass Plate by Centrifugation, and Method of Maintaining Cell Viability
# The ascites-cell suspension in an amount of 1 mL taken at (1) was transferred to a plastic chamber dedicateded for CF-12D as in Example 4. The ascites cells were allowed to attach on a glass plate by centrifugation at 1400 rpm for 1 minute at room temperature. The plate was then treated as in Example 4, and stored in a moisture chamber until being mounted on the perfusion stage. • (3) Attachment of Glass Plate on Perfusion Stage and Perfusion […]
# It was performed as in Example 4. Only a green fluorescence image was taken before administration of the fluorescently labeled L-glucose derivative. […]
# glucose transporter GLUT = details: cited from earlier work
# cultured cells = details: 2-TRLG and 2-NBDLG applied together to cultured cells; cited from earlier work
smiles,measurement,setting,value
"O=C[C@@H](Nc1ccc([N+](=O)[O-])c2nonc12)[C@H](O)[C@@H](O)[C@@H](O)CO [2-NBDLG, 2-[N-(7-nitrobenz-2-oxa-1,3-diazole-4-yl)amino]-2-deoxy-L-glucose]","fluorescence from 2-NBDLG (green wavelength region), after vs before application of fLG",[1],shows fluorescence; also recorded: positive
same,"fluorescence from 2-NBDLG (green wavelength region), after vs before application",[2],Neither the cell cluster a nor b shows fluorescence; also recorded: negative
same,binding to glucose transporter GLUT,glucose transporter GLUT,does not bind
same,uptake into cells having damaged plasma membranes or showing nonspecific uptake such as phagocytosis,cultured cells,taken up into cells having damaged plasma membranes
